ChEMBL document CHEMBL2331411, “Pyrrolopyrimidine inhibitors of DNA gyrase B (GyrB) and topoisomerase IV (ParE). Part I: Structure guided discovery and optimization of dual targeting agents with potent, broad-spectrum enzymatic activity” (Bioorg Med Chem Lett, 2013)
In brackets after ≈: the same amount, converted by molar mass.

Columns and labels:
[1] = Inhibition of Francisella tularensis DNA topoisomerase 4 subunit B using ATP as substrate assessed as release of inorganic phosphate incubated for 10 mins prior to substrate addition measured after 30 mins by spectrophotometric analysis
[2] = Inhibition of Escherichia coli DNA topoisomerase 4 subunit B using ATP as substrate assessed as release of inorganic phosphate incubated for 10 mins prior to substrate addition measured after 30 mins by spectrophotometric analysis
[3] = Inhibition of Enterococcus faecalis DNA gyrase subunit B using ATP as substrate assessed as release of inorganic phosphate incubated for 10 mins prior to substrate addition measured after 30 mins by spectrophotometric analysis
[4] = Inhibition of Enterococcus faecalis DNA topoisomerase 4 subunit B using ATP as substrate assessed as release of inorganic phosphate incubated for 10 mins prior to substrate addition measured after 30 mins by spectrophotometric analysis
[5] = Inhibition of Francisella tularensis DNA gyrase subunit B using ATP as substrate assessed as release of inorganic phosphate incubated for 10 mins prior to substrate addition measured after 30 mins by spectrophotometric analysis
Staphylococcus aureus = test: Antibacterial activity against Staphylococcus aureus assessed as growth inhibition; assay type: functional
[6] = Inhibition of Acinetobacter baumannii DNA topoisomerase 4 subunit B using ATP as substrate assessed as release of inorganic phosphate incubated for 10 mins prior to substrate addition measured after 30 mins by spectrophotometric analysis

Row | Compound | Ki [1] [nM] | Ki [2] [nM] | Ki [3] [nM] | Ki [4] [nM] | Ki [5] [nM] | MIC (Staphylococcus aureus) [µg/mL] | Ki [6] [nM]
1 | CCc1[nH]c2nc(Sc3ccc4ccc[n+]([O-])c4c3)nc(N3CC[C@@H](N)C3)c2c1Cl | 3 | 7 | < 1 | 15 | – | – | –
2 | CCc1[nH]c2nc(Sc3cncnc3)nc(N3CC4C(N)C4C3)c2c1Cl (configuration not stated) | 15 | 36 | 5 | 79 | 2 | – | –
3 | CCc1[nH]c2nc(Sc3cnc4nccnc4c3)nc(N3C[C@H]4CN[C@H]4C3)c2c1Cl | 1 | 2 | < 1 | 9 | – | – | –
4 | CCc1[nH]c2nc(Sc3cnc4nccnc4c3)nc(N3CCC(N)CC3)c2c1Cl | 6 | 36 | < 1 | 69 | 3 | – | –
5 | CCc1[nH]c2nc(Sc3ccc4nc[nH]c(=O)c4c3)nc(N3CC[C@@H](N)C3)c2c1Cl | 2 | 4 | < 1 | 14 | – | – | –
6 | CCc1[nH]c2nc(Sc3ccc4ccc(C(=O)O)nc4c3)nc(N3CC[C@@H](N)C3)c2c1Cl | 4 | 2 | < 1 | 4 | – | – | –
7 | CCc1[nH]c2nc(Sc3cnc4nccnc4c3)nc(N3C[C@H]4CCCN[C@H]4C3)c2c1Cl | 10 | 17 | 9 | 29 | < 1 | – | –
8 | CCc1[nH]c2nc(Sc3cnc4cccnc4c3)nc(N3CC[C@@H](N)C3)c2c1Cl | – | < 1 | < 1 | 2 | – | – | –
9 | CCc1[nH]c2nc(Sc3cccnc3)nc(OC)c2c1C=O | 900 | – | 200 | 1200 | 800 | – | –
10 | CCc1[nH]c2nc(Sc3cnc4nccnc4c3)nc(N3CC(N)C3)c2c1Cl | 4 | 39 | 4 | 65 | 7 | – | –
11 | CCc1[nH]c2nc(Sc3cccnc3)nc(Cl)c2c1C=O | 8700 | – | 800 | 3700 | 1200 | 64 (≈ 201 µM) | –
12 | CCc1[nH]c2nc(Sc3ccc4c(N5CCC(N)C5)cc(C(=O)O)nc4c3)nc(N3CC[C@@H](N)C3)c2c1Cl (some centres not stated) | 6 | 7 | < 1 | 19 | – | – | –
13 | CCc1[nH]c2nc(Sc3ccc4cc5c(nc4c3)C(=O)OC5)nc(N3CC[C@@H](N)C3)c2c1Cl | 2 | < 1 | < 1 | < 1 | – | – | –
14 | CCc1[nH]c2nc(Sc3cnc4ccc[n+]([O-])c4c3)nc(N3CC[C@@H](N)C3)c2c1Cl | 1 | 5 | < 1 | 5 | – | – | –
15 | CCc1[nH]c2nc(Sc3cnc4nccnc4c3)nc(N3CC4C(N)C4C3)c2c1Cl (configuration not stated) | – | < 1 | < 1 | 4 | – | – | –
16 | CCc1[nH]c2nc(Sc3ccc4cncnc4c3)nc(N3CC[C@@H](N)C3)c2c1Cl | 2 | 5 | < 1 | 7 | – | – | –
17 | CCc1[nH]c2nc(Oc3cncnc3)nc(N3CC4C(N)C4C3)c2c1Cl (configuration not stated) | 2 | 4 | < 1 | 10 | – | – | –

Row | Compound | Ki [1] [nM] | Ki [2] [nM] | Ki [3] [nM] | Ki [4] [nM] | Ki [5] [nM] | MIC (Staphylococcus aureus) [µg/mL] | Ki [6] [nM]
18 | CCc1[nH]c2nc(Sc3ccc4[nH]cc(C(=O)O)c(=O)c4c3)nc(N3CC[C@@H](N)C3)c2c1Cl | – | < 1 | < 1 | 6 | – | – | –
19 | CCc1[nH]c2nc(Sc3cnc4[nH][nH]c(=O)c4c3)nc(N3CC[C@@H](N)C3)c2c1Cl | 4 | 6 | 6 | 24 | 5 | – | –
20 | CCc1[nH]c2nc(Sc3cncnc3)nc(N3CC[C@@H](N)C3)c2c1Cl | 36 | 127 | 4 | 157 | 8 | – | –
21 | CCc1[nH]c2nc(Oc3cncnc3)nc(N3CC[C@@H](N)C3)c2c1Cl | 15 | 38 | < 1 | 84 | 3 | – | –
22 | CCc1[nH]c2nc(Sc3cnc4cccnc4c3)nc(N3CC4C(N)C4C3)c2c1Cl (configuration not stated) | 2 | 1 | 1 | 10 | < 1 | – | –
23 | CCc1[nH]c2nc(Sc3cccnc3)nc(Cl)c2c1Br | 1200 | – | 300 | 3500 | 400 | 2 (≈ 5.41 µM) | –
24 | CCc1[nH]c2nc(Sc3ccc4c(c3)C(=O)NC4)nc(N3CC[C@@H](N)C3)c2c1Cl | 2 | 11 | 7 | 19 | 9 | – | –
25 | CCc1[nH]c2nc(Sc3cccnc3)nc(Cl)c2c1C(C)=O | > 20000 | – | 2000 | 1000 | 6600 | 64 (≈ 192 µM) | –
26 | CCc1cc2c(Cl)nc(Sc3cccnc3)nc2[nH]1 | – | – | > 50000 | – | – | > 64 | –
27 | CCc1[nH]c2nc(Sc3cccnc3)nc(Cl)c2c1Cl | – | – | 400 | 3500 | 500 | 4 (≈ 12.3 µM) | 2000
28 | CCc1[nH]c2nc(Sc3ccc4cccnc4c3)nc(N3CC[C@@H](N)C3)c2c1Cl | 27 | 80 | 4 | 148 | 10 | – | –
29 | CCc1[nH]c2nc(Sc3cnc4ncc(=O)[nH]c4c3)nc(N3CC[C@@H](N)C3)c2c1Cl | 6 | 11 | < 1 | 13 | 1 | – | –
30 | CCc1[nH]c2nc(Sc3cccnc3)nc(Cl)c2c1C(F)F | 400 | – | 1700 | 1200 | 500 | 64 (≈ 188 µM) | –
31 | CCc1[nH]c2nc(Oc3cnc4cccnc4c3)nc(N3CC4C(N)C4C3)c2c1Cl (configuration not stated) | – | < 1 | < 1 | 3 | – | – | –
32 | CCc1[nH]c2nc(Sc3cnc4nccnc4c3)nc(N3CC[C@@H](N)C3)c2c1Cl | 4 | 11 | 2 | 23 | < 1 | – | –
33 | CCc1[nH]c2nc(Sc3cnc4nccnc4c3)nc(N3C[C@H]4CCN[C@H]4C3)c2c1Cl | 9 | 6 | 6 | 19 | < 1 | – | –
34 | CCc1[nH]c2nc(Sc3ccc4nc(N)n[n+]([O-])c4c3)nc(N3CC[C@@H](N)C3)c2c1Cl | – | 2 | < 1 | 7 | – | – | –
